Marks after values point to notes of the source that are not given here.
How the values were obtained:
[1] = tested on: Dextran Sodium Sulphate (DSS)-induced colitis; test: 10-Day DSS-induced colitis model in the mouse (Example 2): Disease Activity Index and colon histology score; type: in vivo, mouse (male C57BL/6); set-up: key to DAI score: DAI score from stool, bleeding, weight loss; daily maximum 12; conditions: for DAI score: 1 mg/kg p.o. daily
Source text: The aim of the following study was to determine the anti-inflammatory activity of human beta defensin 2 in an acute (10-days) model of inflammatory bowel disease (colitis) induced by oral dextran sodium sulphate (DSS) administration in the mouse.
Animals were divided into 5 experimental groups.
Colitis was induced in mice by supplementing their drinking water with DSS 2% for 7 days.
On Day 1 all mice were weighed and marked according to their experimental groups. The drinking bottle of each cage was filled with the DSS solution, making sure all bottle lids were mounted properly and that none were congested.
On Day 3 any remaining solution in the bottles was emptied and refilled with fresh DSS solution. This procedure was repeated again on Day 5.
On Day 8 any remaining solution was discarded and replaced with autoclaved water.
Animals were sacrificed 2 days later on Day 10.
Daily clinical assessment of DSS-treated animals was carried out, with the calculation of a validated clinical Disease Activity Index (DAI) ranging from 0 to 4 according to the following parameters: stool consistency, presence or absence of rectal bleeding and weight loss:
Bodyweight loss was calculated as the percent difference between the original bodyweight (Day 1) and the actual bodyweight on each experimental day (2-10).
The appearance of diarrhoea is defined as mucus/faecal material adherent to anal fur. Rectal bleeding is defined as diarrhoea containing visible blood/mucus or gross rectal bleeding. The maximum score of the DAI each day is 12.
Their colons were removed and their length and weight measured after exclusion of the caecum.
Two sections (proximal and distal) of colon were taken from each animal and preserved in neutral buffered formalin for subsequent histological analysis (haematoxylin and eosin staining) according to the following scoring system:
Two sections (proximal and distal) of colon were taken from each animal, processed for histological analysis (haematoxylin and eosin staining) and scored by a blind observer according to the histological scoring system described above.
(§1) The statistical significance of the results was evaluated using the statistics program Graphpad Instat 3. The difference between groups for disease activity index and histological score was evaluated by Kruskal-Wallis test for unpaired data plus post-test Dunn to allow for multiple comparisons. A value of p<0.05 was taken as significant.

[2] = tested on: TNF-α; test: Determination of TNF-alpha concentration in colonic tissue samples by ELISA (Example 2); type: in vivo, mouse (male C57BL/6); conditions: 1 mg/kg p.o. daily for 10 days
Description: (§2) An additional sample of colon was obtained from each animal and homogenised in PBS (100 mg tissue/ml PBS) containing 1% bovine serum albumin (BSA) and a protease inhibitor cocktail (1 ml/20 g tissue). The homogenate was then be centrifuged at 1400 rpm for 10 min and the supernatant stored at −20° C. for subsequent determination of TNF-α concentration by specific enzyme immunoassay (ELISA).
[…]

[3] = tested on: Dextran Sodium Sulphate (DSS)-induced colitis; test: 10-Day DSS-induced colitis model in the mouse (Example 3): Disease Activity Index and colon histology score; type: in vivo
Description: Example 3 was carried out essentially as described in Example 2. The differences are indicated below.
Animals were divided into 9 experimental groups. […]
Methylprednisolone was given orally at a dose of 1 mg/kg (group H) and 10 mg/kg (group J) in a dosing volume of 5 ml/kg body weight, once daily for 10 consecutive days.
Two sections (proximal and distal) of colon were taken from each animal, processed for histological analysis (haematoxylin and eosin staining), and scored by a blind observer according to the scoring system described above.
as §1, with “data+post-test of” for “data plus post-test”, “Dunn” for “Dunn to allow”, “significant. In the tables above, significant differences versus the corresponding control (vehicle) group are denoted as: *p<0.05, **p<0.01, ***p<0.001.” for “significant.”

Structure (SMILES): C[C@H]1C[C@@H]2[C@H]([C@@H](O)C[C@@]3(C)[C@H]2CC[C@]3(O)C(=O)COC(=O)CCC(=O)O)[C@@]2(C)C=CC(=O)C=C12 [Methylprednisolone 21-hemisuccinate]
- Histology Score Distal Colon ([1]; 1 mg/kg p.o. daily for 10 days): 3.70
- Histology Score Proximal Colon ([1]; 1 mg/kg p.o. daily for 10 days): 2.80*
- DAI score ([1]; Day 1): 0.00
- DAI score ([1]; Day 2): 0.10
- DAI score ([1]; Day 3): 0.00
- DAI score ([1]; Day 4): 2.60
- DAI score ([1]; Day 5): 2.50
- DAI score ([1]; Day 6): 2.60
- DAI score ([1]; Day 7): 3.10
- DAI score ([1]; Day 8): 2.50*
- DAI score ([1]; Day 9): 3.80*
- DAI score ([1]; Day 10): 4.90**
- Colon TNF-α concentration [2]: 1833 pg/g tissue
- Histology Score Distal Colon ([3]; 1 mg/kg p.o. once daily): 3.00***
- Histology Score Proximal Colon ([3]; 1 mg/kg p.o. once daily): 1.40
- DAI score ([3]; 1 mg/kg p.o. once daily, Day 1): 0.00
- DAI score ([3]; 1 mg/kg p.o. once daily, Day 2): 0.50
- DAI score ([3]; 1 mg/kg p.o. once daily, Day 3): 0.50
- DAI score ([3]; 1 mg/kg p.o. once daily, Day 4): 0.40
- DAI score ([3]; 1 mg/kg p.o. once daily, Day 5): 1.10
- DAI score ([3]; 1 mg/kg p.o. once daily, Day 6): 3.80
- DAI score ([3]; 1 mg/kg p.o. once daily, Day 7): 5.90
- DAI score ([3]; 1 mg/kg p.o. once daily, Day 8): 6.40
- DAI score ([3]; 1 mg/kg p.o. once daily, Day 9): 5.60*
- DAI score ([3]; 1 mg/kg p.o. once daily, Day 10): 5.60*
- Histology Score Distal Colon ([3]; 10 mg/kg p.o. once daily): 2.70***
- Histology Score Proximal Colon ([3]; 10 mg/kg p.o. once daily): 1.40
- DAI score ([3]; 10 mg/kg p.o. once daily, Day 1): 0.00
- DAI score ([3]; 10 mg/kg p.o. once daily, Day 2): 0.30
- DAI score ([3]; 10 mg/kg p.o. once daily, Day 3): 0.70
- DAI score ([3]; 10 mg/kg p.o. once daily, Day 4): 0.80
- DAI score ([3]; 10 mg/kg p.o. once daily, Day 5): 1.30
- DAI score ([3]; 10 mg/kg p.o. once daily, Day 6): 2.00
- DAI score ([3]; 10 mg/kg p.o. once daily, Day 7): 3.20**
- DAI score ([3]; 10 mg/kg p.o. once daily, Day 8): 4.80**
- DAI score ([3]; 10 mg/kg p.o. once daily, Day 9): 5.20*
- DAI score ([3]; 10 mg/kg p.o. once daily, Day 10): 4.00***
